Entries after “also recorded” stand apart in the source; their conditions may differ. Read-outs that look alike come from different tables or passages of the source.
Tests used:
[1] = system: LSC-enriched leukemia cells on OP9 stromal cells; assay: Leukemia coculture assay on OP9 stroma (primary screen); assay type: cell-based, murine; details: 5 μM
Protocol: Plate covers were re-added and the plates were placed in the incubator for 24 hours. The plate covers were removed, 100 nl of compound in dimethyl sulfoxide (DMSO) (final concentration 5 μM in 0.2% DMSO) was added to the appropriate wells using a CyBi-Well Vario (CyBio) the plate covers were replaced, and the plates were placed in the incubator for 3 days. Plate covers were removed, the media was aspirated from each plate, 50 μl of fresh media (50/50 coculture and OP9 conditioned media mix) was added and another 100 nl of compound was added to the appropriate wells. The plates were re-covered and placed in the incubator for 2 days. At this point, the plates were imaged using a IX Microscope (Molecular Devices) at 10× magnification at 9 sites per well in both the GFP and dsRed channels. Images were stored on the Broad Institute server for future analysis. […]
Briefly, primary dsRed^+ leukemia cells enriched for LSCs were isolated by flow cytometry and cocultured on GFP^+ OP9 stromal monolayers, treated with 5 μM of compound (to a final concentration of 0.2% DMSO), and imaged 5 days later by automated microscopy (dsRed channel for leukemia, and GFP channel for stroma) (FIG. 1). The stored images were analyzed for levels of cobblestoning as described herein.

[2] = system: LSC-enriched leukemia cells (MLL-AF9); assay: Leukemia coculture assay on primary MSC stroma (cobblestoning readout); assay type: cell-based, murine; details: for IC50: Mus musculus; for leukemia-selective activity in coculture vs normal HSPCs: primary MSC stroma
Protocol: Whole bone marrow were harvested from C57/B16 actin-dsRed mice (006051, Jackson Labs), subjected to red blood cell lysis (Qiagen), then granulocyte-macrophage progenitors (GMPs) were isolated by Fluorescence-activated cell sorting (FACsAria, Becton Dickinson). GMPs were spinfected twice (2500 rpm, 90 min, 37 C) in the presence of mIL3 (10 ng/ml, Peprotech), mIL6 (10 ng/ml, Peprotech), and mSCF (10 ng/ml, Peprotech) with pMSCV-MLL-AF9-Neo virus then transplanted into lethally irradiated C57/B16 recipients. After disease onset, the spleens were harvested and transplanted into sublethally irradiated secondary recipients. Subsequent transplantation of bulk spleen cells from leukemic secondary mice was repeated twice to generate leukemic GMPs from quaternary transplant leukemic mouse bone marrow.
Long bones and hips from moribund leukemic mice were harvested, cleaned, crushed and sequentially passed through 100 and 70 μM filters (Falcon). The cells were RBC lysed (Qiagen) and stained in PBS+2% FBS (Omega). Antibodies included lineage markers CD4, CD8, Gr1, Mac1, IL-7R, and Ter119 (Caltag), c-kit (17-1172-83, eBioscience), Sca-1 (11-5981-82, eBioscience), CD34 (11-0341-85, eBioscience), and CD16/32 (25-0161-82, eBioscience). Hoechst 33258 (H21491, Invitrogen) was also used, to identify live cells. Cells were sorted on a FacsAria II (Becton Dickinson).
The humerii, tibiae, ilia, femurs, and spine were isolated from actin-GFP mice (000329, Jackson Lab) crushed using a mortar and pestle, washed in phosphate-buffered saline (PBS) without magnesium and calcium (Gibco) with 0.5% fetal bovine serum (FBS) (HyClone) and filtered through a 70-μm filter. Red blood cell lysis was performed with ammonium-chloride/potassium-chloride (ACK) lysing buffer (Lonza), the cells were resuspended in α-MEM (StemCell Technologies), 20% FBS (HyClone) and 1× Pen-Strep (CellGro), plated in 25 ml in 150-cm^2 tissue-culture flasks (three per mouse), and incubated at 33° C. with 5% CO2. After 2-3 days, the medium was replaced with fresh α-MEM with 20% FBS. After 8-14 days, the cells were rinsed, split by trypsinization (CellGro), pooled, filtered through a 70 μm filter, replated at 3-4 million cells per 150-cm^2 tissue-culture flask, and grown at 33° C. with 5% CO2 for 3-4 days until nearly confluent. The cells were trypsinized, filtered, and resuspended in 0.5% FBS in PBS with biotin-conjugated anti-mouse CD105 antibody (eBioscience) for 15-30 minutes at room temperature. The CD105-labeled cells were incubated with Dynabead M-280 streptavidin-linked magnetic beads (Invitrogen) for 15-30 minutes at 4° C. with agitation and isolated using magnetic separation and rinsed once. The CD105^+ cell fraction was replated at 1-2 million cells per 150-cm^2 tissue-culture flask and incubated at 33° C. with 5% CO2 for 2-3 days.
The MSCs were trypsinized, filtered, diluted in phenol-red-free alpha-MEM with 20% FBS, and plated (30 μl for a total of 2000 cells per well) on 384-well clear-bottomed black tissue-culture treated plate (3712, Corning) pretreated with fibronectin (Millipore). Plate covers (VWR) were added, the plates were spun and at 500 with slow braking, and the cells were incubated at room temperature for 60-90 minutes before incubation at 33° C. with 5% CO2 for 3 days prior to hematopoietic cell plating. […]

[3] = system: normal HSPCs; assay: Normal HSPC coculture on primary MSC stroma; details: Mus musculus
Protocol: The material was cleaned, crushed and sequentially passed through 100 and 70 μM filters (Falcon). […] The biotin-labeled cells were spun down, resuspended in 0.5% FBS in PBS, and incubated for 15-30 minutes at 4° C. with agitation with 1 mL of Dynabead M-280 streptavidin-linked magnetic beads per 4 mice. The bead-linked cells were depleted using magnetic separation and rinsed once. The lineage- and CD48-depleted cell fraction was labeled with streptavidin-APC-Cy7 antibody from BD Biosciences and c-kit-APC, Sca-1-FITC, CD48-Pacific Blue, and CD150 PE-Cy7 antibodies from eBioscience. DsRed-positive lineage-Sca-1+c-kit+CD48− HSCs were sorted using a FACS DiVa or FACS ARIA (BD Biosciences).
A total of 20 μL of 20 μg/mL fibronectin (Millipore) in PBS was added to each well of a 384-well clear-bottomed black tissue-culture treated plate (Corning) and incubated for 30-120 minutes at 33° C. or 37° C. […] The fibronectin solution was removed from each well using a 24-channel wand aspirator; then 30 μL of BMSC solution was added to plate 2000 BMSCs/well. […] Each plate was covered with a sterile rayon breathable membrane (VWR) and plastic lid, and then spun at 500 rpm (approximately 60× gravity) with slow braking. The plates were incubated at room temperature for 60-90 minutes before incubation at 33° C. with 5% CO2 for 3 days prior to HSC addition.
The sorted HSCs, SLAMs and progenitor cells were resuspended in phenol-red free alpha-MEM with 20% FBS and diluted to 10,000 cells/mL. A total of 20 μL of cell solution containing 200 hematopoietic cells was added to each well using a multichannel pipettor or liquid-dispensing system. Each plate was covered with a sterile rayon breathable membrane (VWR) and plastic lid, and then spun at 500 rpm (approximately 60×gravity) with slow braking. The plates were incubated at room temperature for 60-90 minutes before incubation at 33° C. with 5% CO2 overnight prior to compound or cytokine addition.
Image analysis was performed using MetaXpress software from MDC and CellProfiler software from the Broad Institute of Harvard and MIT.
Compound addition and incubation was performed as described for the LSC coculture screen above, but without a media change or readdition of the compound.
The selected set was screened in 8-point dose against both normal HSPCs with a high number of replicates (6) and LSC-enriched leukemia cells, each cocultured on primary MSCs.

[4] = system: human AML cell lines (U937, THP-1, NOMO-1, SKM-1, NB4, and OCI-AML3); assay: AML cell line screen (CellTiter-Glo); assay type: cell-based; details: for IC50: Homo sapiens, AML cell line screens, read-out: IC50s across 6 cell lines
Protocol: Nomo-1, THP-1, SKM-1, NB4, and U937 cell lines were grown in RPMI (12-702F, BioWhittaker), 10% FBS (10082-147, Gibco), and 1% Pen-Strep (15140-122, Gibco) and OCI-AML3 was grown in α-MEM (36453, Stem Cell Technologies), 10% FBS (10082-147, Gibco), and 1% Pen-Strep (15140-122, Gibco). 3000 cells were plated in each well in 30 μl in white, 384 well plates (3570, Corning) and 16 hours later 100 nl of the appropriate compound was added to each well. 72 hours later the plates were cooled to room temperature and 30 μl of CellTiterGlo reagent (G7570, Promega) diluted 1:1 in PBS was added to each well and the plates were analyzed using an Envision (Perkin Elmer).
First, a traditional small molecule screen was performed on six human AML cell lines (U937, THP-1, NOMO-1, SKM-1, NB4, and OCI-AML3), two of which (NOMO-1, THP-1) contain the same oncogene (MLL-AF9) used to generate the primary leukemia cells utilized in our coculture system. The cell lines were grown in isolation under standard conditions, treated with the 160 compounds at 8-point dose, and three days later the viability of each well was quantified using CellTiter-Glo reagent. The IC50s from these AML cell line screens were then compared to the IC50s from the coculture screens. […] As discussed, the existence of such differentially-active compounds is consistent with our hypothesis that coculturing can expand the pool of therapeutically promising compounds identified in high throughput format.

[5] = system: CD34+ cells from primary human leukemia samples; assay: Human CD34+ CAFC assay, leukemia samples; assay type: cell-based; details: 1.25 μM to 10 μM, 18 hours exposure, read at 5 weeks (2 weeks FLT3-ITD)
Protocol: Samples were centrifuged over Ficoll-Paque PLUS (GE Heathcare) step gradient (2000×g for 30 min in 50 ml tubes) to obtain mononuclear cells and then CD34^+ cells were selected with immunomagnetic beads (MACS Cell Separation, Miltenyi Biotec, Auburn, Calif.), except in one case, NPM1 mutation, which was CD34^− by flow cytometry and mononuclear cells were used. 50,000 cells were placed into 12.5 cm^2 flasks (Becton Dickinson Labware, Franklin Lakes, N.J.) in co-culture with the MS-5 mouse bone marrow-derived stromal cell line (kindly provided by Dr. Itoh, Dept. of Biology, Niigata University, Japan) and DMSO control and the number of final cobblestones was later read. The number of cells needed to form one cobblestone was then placed in triplicate for each sample with each drug at serial drug dilutions from 10 μM to 0.63 μM as well as with DMSO 0.5% for control purposes and incubated overnight with Iscove's modified Dulbecco's medium (IMDM, in house media preparation laboratory)+20% fetal calf serum (FCS, Atlanta Biologicals, Lawrenceville, Ga.) with glutamine (2 mM/ml, in house media preparation laboratory), monothioglycerol (MTG, 10 nM/ml, Sigma Cell Culture, St. Louis Mo.), c-Kit ligand (20 ng/ml, Amgen, Thousand Oaks, Calif.), Flt ligand (20 ng/ml, Imclone, Bridgewater, N.J.), TPO (20 ng/ml, Amgen) and IL-3 (20 ng/ml, Amgen). Cells were then washed to remove the drugs and placed into 96 well cell culture plates (Becton Dickinson) with α-MEM (in house media preparation laboratory)+12.5% FCS+12.5% horse serum (Gemini Bio-products, West Sacramento, Calif.) with glutamine, MTG, hydrocortisone (1 nM/ml, Sigma) and IL-3 in co-culture with MS-5 stromal cells. […] The same procedure was followed with normal CD34+ cells obtained from cord blood.
(§1) The cells were treated with compound or DMSO carrier control at four doses (ranging from 1.25 μM to 10 μM) in triplicate for 18 hours, washed thoroughly, then plated onto human stromal MS-5 monolayers (Itoh, K., Tezuka, H., Sakoda, H., Konno, M., Nagata, K., Uchiyama, T., Uchino, H., and Mori, K. J. (1989). Exp Hematol 17, 145-153.) and maintained in coculture with one subsequent half media change. After 5 weeks (2 weeks for the FLT3-ITD sample (Moore, M. A., Dorn, D. C., Schuring a, J. J., Chung, K. Y., and Morrone, G. (2007). Exp Hematol 35, 105-116.)), cobblestone formation was determined, and dose-response curves against the 7 cell types were generated for each compound.

[6] = system: primary CD34+ cells from normal human cord blood; assay: Human CD34+ CAFC assay, normal cells; details: 1.25 μM to 10 μM, 18 hours exposure
Protocol: Samples were centrifuged over Ficoll-Paque PLUS (GE Heathcare) step gradient (2000×g for 30 min in 50 ml tubes) to obtain mononuclear cells and then CD34^+ cells were selected with immunomagnetic beads (MACS Cell Separation, Miltenyi Biotec, Auburn, Calif.), except in one case, NPM1 mutation, which was CD34^− by flow cytometry and mononuclear cells were used. 50,000 cells were placed into 12.5 cm^2 flasks (Becton Dickinson Labware, Franklin Lakes, N.J.) in co-culture with the MS-5 mouse bone marrow-derived stromal cell line (kindly provided by Dr. Itoh, Dept. of Biology, Niigata University, Japan) and DMSO control and the number of final cobblestones was later read. The number of cells needed to form one cobblestone was then placed in triplicate for each sample with each drug at serial drug dilutions from 10 μM to 0.63 μM as well as with DMSO 0.5% for control purposes and incubated overnight with Iscove's modified Dulbecco's medium (IMDM, in house media preparation laboratory)+20% fetal calf serum (FCS, Atlanta Biologicals, Lawrenceville, Ga.) with glutamine (2 mM/ml, in house media preparation laboratory), monothioglycerol (MTG, 10 nM/ml, Sigma Cell Culture, St. Louis Mo.), c-Kit ligand (20 ng/ml, Amgen, Thousand Oaks, Calif.), Flt ligand (20 ng/ml, Imclone, Bridgewater, N.J.), TPO (20 ng/ml, Amgen) and IL-3 (20 ng/ml, Amgen). […]
as §1

[7] = system: primary leukemia cocultures; assay: Mevalonolactone rescue experiment; assay type: cell-based, murine; details: 2 mM mevalanolactone with 1 μM lovastatin, 5 days
Protocol: Primary leukemia cocultures were plated as described, and treated with 2 mM mevalanolactone and/or 1 μM lovastatin as shown, for 5 days. Total leukemia cells were counted using MetaXpress software from MDC. Carriers were controlled for across all treatments. The viability of the stroma was assessed using stromal monolayers grown alone and treated in parallel, with the same readout described in the stromal toxicity screen here.

Row | Structure (SMILES) | hit in primary screen [1] | hit in primary screen ([1]; listed as L-744832) | IC50 ([2]; MLL-AF9, LSCs on primary MSC stroma, 8-point dose, read-out: Leukemia IC50) | leukemia-selective activity in coculture vs normal HSPCs [2] | IC50 ([3]; read-out: Normal IC50, HSPCs on primary MSC stroma, 8-point dose) | activity against AML cell lines [4] | IC50 [4] | leukemia cobblestone inhibition (human CAFC) [5] | toxicity against normal primary CD34+ cells (human CAFC) [6] | IC50 ([2]; MLL-AF9, read-out: Leukemia IC50) | IC50 ([3]; read-out: Normal IC50) | rescue of anti-leukemia effect of lovastatic acid [7]
1 | CC[C@H](C)[C@@H](COC(Cc1ccccc1)C(=O)N[C@@H](CCS(C)(=O)=O)C(=O)OC(C)C)NC[C@@H](N)CS (stereo partly drawn) [L-744, 832] | independently scored | independently hit |  |  |  |  |  |  |  |  |  | 
2 | COC(=O)Nc1nc2cc(SC(C)C)ccc2[nH]1 [Methiazole] |  |  | 466 nM | leukemia-selective activity | > 20000 nM | strong activity | < 625 nM | leukemia cobblestone inhibition was observed across all six primary leukemia samples | neither compound showed toxicity |  |  | 
3 | CCCCc1ccc2[nH]c(NC(=O)OC)nc2c1 [Parbendazole] |  |  |  | leukemia-selective activity |  | strong activity | < 625 nM | leukemia cobblestone inhibition was observed across all six primary leukemia samples | neither compound showed toxicity | 76 nM | > 20000 nM | 
4 | C[C@@]1(O)CCOC(=O)C1 [mevalonolactone] |  |  |  |  |  |  |  |  |  |  |  | rescues the anti-leukemia effect of lovastatin; also recorded: rescued the anti-leukemia effects of lovastatic acid

From US20130338092A1, “COMPOUNDS AND METHODS FOR TARGETING LEUKEMIC STEM CELLS” (The Broad Institute, Inc., priority 2011, published 2013)
